We go through 71 compounds from PubChem BioAssay AID179 (DTP/NCI, 2004).

Usually EC50 stands for the midpoint of the concentration-response curve. In general, IC50 refers to the concentration at which inhibition is half-maximal. A higher IC50 goes with weaker potency.

Structures are written as SMILES. Active and inactive are the calls of the source.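 Rule for the calls: active = compounds giving half or more protection of infected cells from virus-caused growth loss, again on retest; inactive = the rest.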 Where only a bound is given, the exact number is not on record here.

For this experiment, the system named is CEM cells HIV-1 protection, formazan growth assay. Nature of the experiment: NCI AIDS Antiviral Assay. As to conditions: for IC50: measured here: growth of uninfected CEM cells. Put shortly:
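Protection of CEM cells against HIV-1 was scored from cell growth (soluble formazan) across five concentrations, with parallel uninfected cells. Lack of protection may reflect toxicity.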

With `CC/C=C\C/C=C\C/C=C\CCCCCCCC(=O)OCC`, the EC50 is > 200 µM and the concentration for half-maximal inhibition (IC50) is 105 µM.
In the same order, the values of `C=CC/C=C/C/C=C/CCCCCCCc1cccc(O)c1C(=O)O` are > 105 µM and 56.2 µM.
In the same order, the values of `Cn1cc(NC(=O)Nc2cc(C(=O)Nc3cc(C(=O)Nc4ccc5c(S(=O)(=O)O)cccc5c4S(=O)(=O)O)n(C)c3)n(C)c2)cc1C(=O)Nc1cc(C(=O)Nc2ccc3c(S(=O)(=O)O)cccc3c2S(=O)(=O)O)n(C)c1` are 22.9 µM and 148 µM.
In the same order, the values of `CCCCCCCCCCCC1=C(O)C(=O)C(CC2=C(O)C(=O)C(CCCCCCCCCCC)=C(O)C2=O)=C(O)C1=O` are > 20 µM and > 20 µM.
Consider `CCCCCCCCCCC#CCC(=O)SCCNC(=O)CCNC(=O)[C@@H](O)C(C)(C)COP(=O)(O)OP(=O)(O)OCC1OC(n2cnc3c(N)ncnc32)C(O)C1OP(=O)(O)O` (stereo not given in full), for which the result was inactive.
Regarding `CCOC(=O)/C(=C\c1c[nH]c2ccccc12)P(=O)(OCC)OCC`, the EC50 was > 200 µM and the concentration for half-maximal inhibition (IC50) was 38 µM.
In the same order, the values of `C=C1c2nc3ccccc3n2C=C(c2ccc(C)cc2)N1c1ccccc1` are > 200 µM and 1.35 µM.
`CC(=O)OC1C=CC(OC(C)=O)C2C1[C@H]1C3C=CC=CC3[C@@H]2S1=O` (stereo not given in full): the EC50 is > 200 µM and the IC50 stood at 112 µM.
`N.N.N.N.O=C([O-])O.O=C([O-])[O-].[Co+3]`: the result was inactive.
For the compound `Cn1c(=S)[nH]c2c(Cl)cc(Cl)cc2c1=O`, the EC50 was > 200 µM and the IC50 was 138 µM.
For `CC1=C2c3ccccc3N(S(=O)(=O)c3ccccc3)[C@H]2[C@H](C(=O)N2C3CC4CC[C@@]3(CS2(=O)=O)C4(C)C)CC1` (stereo not given in full), the EC50 is 5.25 µM and the IC50 was 18.6 µM.
In the same order, the values of `CCCCS(=O)(=O)CCC(N)C(=O)O` (stereo not given) are > 100 µM and > 100 µM.
In the same order, the values of `COC(=O)c1cc(=O)nc(N/N=C/c2ccccc2O)s1` are > 85.1 µM and 57.5 µM.
Consider `CCCCCCCCNC(=O)SCCCC`, for which the result was inactive.
The same measure, in the same setting: the entry for `C=C1[C@H]2CCC3(CC[C@H]4C5(CCC[C@@]4(C)C(=O)N(CCO)C5)[C@@H]3C2)[C@@H]1O` is “inactive”.
On the same count and under the same terms, the entry for `O=C1C(=O)c2ccccc2C(O)=C1Nc1ccc(Cl)cc1` is “inactive”.
As to `CCCCCCCCCCCC(=O)OCC1OC(n2cc(F)c(=O)[nH]c2=O)C(N)C(O)C1O` (stereo not given), the EC50 is > 55 µM and the half-inhibitory concentration (IC50) is > 55 µM.
`Cc1ccc2c(c1N)C(=O)c1ccccc1C2=O`: the EC50 is > 200 µM and the 50% inhibitory concentration (IC50) was found to be 123 µM.
In the same order, the values of `COc1cc(C2SC(N)=Nc3c2c(C)nn3C(=O)c2ccc(Cl)cc2)ccc1O` (stereo not given) are > 200 µM and > 200 µM.
In the same order, the values of `C1CCSCCCCSCCCCSCCCCSC1` are > 102 µM and > 102 µM.
`C=CCSCC1Nc2cc(Cl)c(S(N)(=O)=O)cc2S(=O)(=O)N1C` (stereo not given): the EC50 was > 234 µM and the IC50 turned out to be 91.2 µM.
In the same order, the values of `CC1(C)CC2=C(Sc3ccccc3N2)C(=O)C1C(=O)C(=O)Nc1cc(Cl)ccc1Cl` (stereo not given) are > 148 µM and 64.6 µM.
As to `Cc1nc2c(sc3nc4c(cc32)CCC4)c(=O)o1`, the EC50 is > 100 µM and the 50% inhibitory concentration (IC50) was determined as 53.7 µM.
In the same order, the values of `CC(NC(=O)C(N)CCC(=O)O)C(=O)NCP(=O)(O)O` (stereo not given) are > 200 µM and > 200 µM.
In the same order, the values of `O=C(/C=C/c1ccccc1)/C=N/N1C(=S)N(c2ccccc2)C(=Nc2ccccc2)C1=Nc1ccccc1` are > 200 µM and > 200 µM.
For the compound `COc1ccccc1NCc1cccc2c(=O)c3ccc(Cl)cc3oc12`, the EC50 was > 151 µM and the IC50 was 46.8 µM.
On to `C=CCCCCCCCCCC(C(=O)O)C(=O)O`, for which the EC50 was > 977 µM and the IC50 was found to be 550 µM.
As for `O=C(CCC(=O)C1Cc2ccccc2C1=O)Nc1cccc(C(F)(F)F)c1` (stereo not given), the EC50 was > 661 µM and the IC50 was > 661 µM.
As for `O=C(CNC(=O)c1cnc2ccccc2n1)NCCCNC(=O)CNC(=O)c1cnc2ccccc2n1`, the EC50 is > 100 µM and the 50% inhibitory concentration (IC50) was > 100 µM.
Turning to `CCCCCCCCCCNCCSSCc1ccc(OC)cc1`, the EC50 was > 200 µM and the IC50 is 3.39 µM.
In the same order, the values of `CN(C)CCCc1cccc2[nH]c3c(c12)CN(C)CC3` are > 200 µM and 126 µM.
In the same order, the values of `COC(=O)C(=Cc1cc(OC)c(OC)c(OC)c1-c1cc2c(cc1C1(C)OCCS1)OCO2)C(=O)OC` (stereo not given) are > 18.6 µM and 15.5 µM.
In the same order, the values of `O=c1[nH]c2cc([N+](=O)[O-])ccc2nc1/C(=N\Nc1ccccc1)C(O)c1ccc2c(c1)OCO2` (stereo not given) are > 447 µM and 214 µM.
`COc1ccc(C2S/C(=C\c3cc(OC)c(OC)c(OC)c3)C(=O)N2NC(=O)Cc2ccccc2)cc1` (stereo not given): the EC50 was > 36.3 µM and the IC50 was > 36.3 µM.
As for `CC1(Br)C2c3ccccc3C(c3ccccc32)C1(C)C(Cl)(Cl)Cl` (stereo not given), the EC50 was > 16.6 µM and the IC50 is > 16.6 µM.
As for `c1ccc(-c2c[se]nn2)cc1`, the EC50 is > 174 µM and the IC50 was 93.3 µM.
In the same order, the values of `CC(C)[Si]1(C(C)C)OCC2OC(n3c(C(=O)c4ccccc4)cc(=O)[nH]c3=O)CC2O[Si](C(C)C)(C(C)C)O1` (stereo not given) are > 200 µM and 9.12 µM.
In the same order, the values of `Cc1cc2c(cc1-c1cc3c(cc1C)C(C(C)C)=C(O)C(=O)/C3=C\Nc1ccccn1)/C(=C/Nc1ccccn1)C(=O)C(O)=C2C(C)C` are > 100 µM and 45.7 µM.
Take `COc1ccc(CCNCc2cccc(OC)c2OC)cc1OC`: the outcome was inactive.
Turning to `COc1cc(C(=O)N/N=C/N(C)C)cc(OC)c1OC`, the EC50 is > 200 µM and the IC50 is > 200 µM.
Turning to `CSC(=NC(=O)c1ccccc1)SCCSC(=NC(=O)c1ccccc1)SC`, the EC50 is > 2.34 µM and the IC50 is > 2.34 µM.
Regarding `N#CCCNCCN(CCN(C(=O)Nc1ccccc1)c1ccccc1)C(=O)Nc1ccccc1`, the EC50 is > 200 µM and the IC50 is 93.3 µM.
`Cc1ccccc1-n1c(=O)nc2n(-c3ccc(C(C)(C)C)cc3)c3ccccc3cc-2c1=O`: the EC50 is > 200 µM and the IC50 was found to be 14.1 µM.
In the same order, the values of `COC(=O)C(NC(=O)c1ccccc1)C(c1ccc(Cl)cc1)P(=O)(OC)OC` (stereo not given) are > 309 µM and > 309 µM.
On to `O=C1NC2CC=CCC12` (stereo not given), for which the EC50 was > 2040 µM and the half-maximal inhibitory concentration (IC50) is > 2040 µM.
`N#Cc1c(=O)[nH]c(=O)n2c1[nH]c1ccccc12`: the EC50 was > 200 µM and the half-inhibitory concentration (IC50) is > 200 µM.
With `CCc1cccc(C)c1NC(=O)CCc1nnc2s/c(=C\c3cccc4ccccc34)c(=O)n12`, the EC50 is > 200 µM and the IC50 came to 191 µM.
Consider `C[Si](C)(C)/N=C1\N2C(=NC1(C(F)(F)F)C(F)(F)F)Sc1ccccc12`, for which the outcome was inactive.
As to `CCOC(=O)/C(F)=C/c1ccc(C)cc1`, the EC50 was > 126 µM and the IC50 is > 126 µM.
For the compound `C[C@]12CCC[C@H](Cl)C1(O)C[C@H](C(=O)O)CC2` (stereo not given in full), the result was inactive.
Regarding `CC[N+](C)(CC)CCC(O)(c1ccccc1)c1ccccc1`, the EC50 is > 200 µM and the IC50 is > 200 µM.
As to `C=C(C)[C@@]1(O[Si](C)(C)C)CCCC[C@@H]1CC(Sc1ccccc1)Sc1ccccc1`, the EC50 was > 200 µM and the IC50 came out at 11.5 µM.
In the same order, the values of `FC1=C2CCCCCC2SC1(F)F` (stereo not given) are > 200 µM and 32.4 µM.
Consider `CN(C)C(=S)Nc1ccc(Cl)cc1`, for which the EC50 was > 200 µM and the IC50 was found to be 52.5 µM.
In the same order, the values of `COC1=NC(NC2OCC(O)C(O)C2O)=C(NC(C)=O)CN1C` (stereo not given) are > 200 µM and > 200 µM.
On to `CN(C)c1ccc(C=C2C(=O)N(c3ccccc3)N(c3ccccc3)C2=O)cc1`, for which the EC50 is > 100 µM and the IC50 turned out to be 69.2 µM.
With `COC(=O)C1(Cc2ccc3c(c2)CCC3)Cc2ccccc2C1=O` (stereo not given), the EC50 is > 200 µM and the 50% inhibitory concentration (IC50) is 10.7 µM.
Turning to `COc1cc(/C=C/C(=O)c2ccccc2)cc(OC)c1OC`, the EC50 was > 87.1 µM and the 50% inhibitory concentration (IC50) was 20.4 µM.
In the same order, the values of `Cc1nc2sccn2c1C(=O)NC(=O)Nc1ccc(Cl)cc1` are > 20.4 µM and > 20.4 µM.
Take `CC(CN(C)C)/C(=N\Nc1ccccc1)c1ccccc1` (stereo not given): the result was inactive.
Consider `CCO/C=C(\C(=O)OC)S(=O)(=O)c1ccc(C)cc1`, for which the EC50 is > 200 µM and the IC50 is > 200 µM.
For `CSC1=Nc2cc3c(cc2C(=O)N2C[C@H](O)CC12)OCO3` (stereo not given in full), the EC50 was > 200 µM and the IC50 was determined as 110 µM.
Consider `Cn1cc(NC(=O)[C@@H]2CCC(N)=N2)cc1C(=O)NCCC(=N)N`, for which the result was inactive.
As to `O=C1CSC(c2cccc([N+](=O)[O-])c2)N1c1ccc(-c2ccc(-n3c(-c4ccccc4)nc4ccccc4c3=O)cc2)cc1` (stereo not given), the EC50 is > 200 µM and the IC50 turned out to be 28.2 µM.
In the same order, the values of `CC1(C)C(=O)C2(C(=O)O)CCC1C2` (stereo not given) are > 200 µM and > 200 µM.
In the same order, the values of `CCc1ccccc1NC(=O)C1=C(C)NC(C)=C(C(=O)Nc2ccccc2CC)C1c1ccc(NC(C)=O)cc1` are > 34.7 µM and > 34.7 µM.
In the same order, the values of `O=C(Nc1cc(Cl)ccc1Cl)C(=O)C(c1cnc2ccccc2n1)[N+](=O)[O-]` (stereo not given) are > 89.1 µM and 38.9 µM.
With `O=C(O)Cc1[nH]c(=O)[nH]c(=O)c1CCl`, the EC50 is > 100 µM and the IC50 was > 100 µM.
On to `c1ccc2c(OCCSCCCCCCCCCCSCCOc3cccc4ccccc34)cccc2c1`, for which the EC50 was > 5.01 µM and the IC50 is > 5.01 µM.
For the compound `COc1ccc(C(=O)/C=C/c2ccc(OCC(=O)N3CCN(c4ccccc4)CC3)cc2)cc1OC`, the result was inactive.
Consider `CCN(CC)c1ccc(C(=C2C=CC(=[N+](CC)CC)C=C2)c2ccc(N(CC)CC)cc2)cc1`, for which the outcome was inactive.
